# From US5541208A, “Indole diterpene alkaloid compounds” (priority 1994, dated 1996)
# pIC50: −log10 of the molar value. Where two headings read alike, the source gives them in different places.
# Experiments:
# [1] = target: T1, maxi-K channels from bovine aortic smooth muscle (Bos taurus, UniProt Q28204); assay: Patch clamp recording of maxi-K channel currents in excised inside-out membrane patches; format: biochemical; conditions: for pIC50: table of Example 4, read-out: 50% CHANNEL BLOCK; for block of maxi-K channels relative to Compound C: compared with Compound C; for inhibition at 0.01 µM: pH 7.2
# T1 construct: membrane patches excised from cultured bovine aortic smooth muscle cells; endogenous in cells; host or cells: cultured bovine aortic smooth muscle cells
# T1 sequence (Q28204 whole entry): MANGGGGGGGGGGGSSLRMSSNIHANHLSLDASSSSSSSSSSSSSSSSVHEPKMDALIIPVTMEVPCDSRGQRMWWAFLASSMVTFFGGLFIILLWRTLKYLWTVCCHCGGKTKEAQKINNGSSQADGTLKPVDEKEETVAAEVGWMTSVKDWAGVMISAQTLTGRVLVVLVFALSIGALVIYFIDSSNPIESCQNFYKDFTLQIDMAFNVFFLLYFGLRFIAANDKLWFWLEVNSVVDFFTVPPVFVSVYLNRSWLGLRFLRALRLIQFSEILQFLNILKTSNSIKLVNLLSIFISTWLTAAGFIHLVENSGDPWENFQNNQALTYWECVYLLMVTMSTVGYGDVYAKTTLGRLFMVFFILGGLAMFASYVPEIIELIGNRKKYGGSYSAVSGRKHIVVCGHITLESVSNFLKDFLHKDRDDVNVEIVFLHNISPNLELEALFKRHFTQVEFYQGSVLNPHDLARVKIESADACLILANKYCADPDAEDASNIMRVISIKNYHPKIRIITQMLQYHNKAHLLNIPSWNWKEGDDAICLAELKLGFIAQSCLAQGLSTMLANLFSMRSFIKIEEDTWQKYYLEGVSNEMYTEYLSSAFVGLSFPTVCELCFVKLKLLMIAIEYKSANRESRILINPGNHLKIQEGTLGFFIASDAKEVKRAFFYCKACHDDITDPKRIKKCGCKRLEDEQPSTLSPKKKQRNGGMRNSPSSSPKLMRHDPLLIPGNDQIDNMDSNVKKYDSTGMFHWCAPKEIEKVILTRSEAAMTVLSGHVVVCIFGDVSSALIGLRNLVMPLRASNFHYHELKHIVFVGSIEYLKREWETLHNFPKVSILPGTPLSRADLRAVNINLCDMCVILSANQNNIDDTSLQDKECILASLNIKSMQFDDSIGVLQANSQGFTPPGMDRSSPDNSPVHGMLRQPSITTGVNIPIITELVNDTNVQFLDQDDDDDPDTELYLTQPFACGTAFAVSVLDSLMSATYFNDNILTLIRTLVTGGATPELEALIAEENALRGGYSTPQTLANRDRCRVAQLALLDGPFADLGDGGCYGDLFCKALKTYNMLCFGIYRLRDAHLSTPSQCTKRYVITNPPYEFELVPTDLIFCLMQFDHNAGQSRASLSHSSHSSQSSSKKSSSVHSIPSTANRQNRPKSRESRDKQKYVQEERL
# Text: Patch clamp recordings of currents flowing through large-conductance calcium-activated potassium (maxi-K) channels were made from membrane patches excised from cultured bovine aortic smooth muscle cells using conventional techniques (Hamill et al., 1981, Pflugers Archiv. 391, 85-100) at room temperature. Glass capillary tubing (Gamer #7052) was pulled in two stages to yield micropipettes with tip diameters of approximately 1-2 microns. Pipettes were typically filled with solutions containing (mM): 150 KCl, 10 Hepes (4-(2-hydroxyethyl)-1-piperazine ethanesulfonic acid), 1 Mg, 0.01 Ca, and adjusted to pH 7.20 with 3.7 mM KOH. After forming a high resistance (>10^9 ohms) seal between the sarcolemmal membrane and the pipette, the pipette was withdrawn from the cell, forming an excised inside-out membrane patch. The patch was excised into a bath solution containing (mM): 150 KCl, 10 Hepes, 5 EGTA (ethylene glycol bis(13-aminoethyl ether)-N,N,N',N'-tetraacetic acid), sufficient Ca to yield a free Ca concentration of 1-5 μM, and the pH was adjusted to 7.2 with 10.5 KOH. For example, 4.568 mM Ca was added to give a free concentration of 2 μM at 22 ° C. An AXOPATCH 1C amplifier (Axon Instruments, Foster City, Calif.) with a CV-4 headstage was used to control the voltage and to measure the currents flowing across the membrane patch. The input to the headstage was connected to the pipette solution with a Ag/AgCl wire, and the amplifier ground was connected to the bath solution with a Ag/AgCl wire covered with a tube filled with agar dissolved in 0.2M KCl. Maxi-K channels were identified by their large single channel conductance (~250 pS) and sensitivity of channel open probability to membrane potential and intracellular calcium concentration.
# Data were stored on a RACAL STORE 4DS FM tape recorder (Racal Recorders, Vienna, Va.) or on digital video tape using a video casette recorder after digitizing the signal with VR-10 (Instrutech Corp., Belmont N.Y.) PCM video encoder. The signal was also recorded on chart paper with a GOULD 2400S chart recorder (Gould Inc., Cleveland Ohio). For quantitative analysis, the data was played into a DEC11-73 (Digital Equipment Corp., Maynard, Mass.) after digitization with a DT2782-8D1A analogue to digital converter (Data Translation Inc., Marlboro, Mass.), or played into a Mac IIx or Quadra 700 computer (Apple Computers) after digitization with an ITC-16 interface (Instrutech Corp., Belmont, N.Y.).
# [2] = target: T2, bovine aortic sarcolemma membrane vesicles ([^125 I]ChTX receptor) (Bos taurus, UniProt Q28204); assay: [^125 I]ChTX binding assay with aortic sarcolemma membrane vesicles; conditions: for effect on [^125 I]ChTX binding: 1 nM to 100 μM
# T2 construct: bovine aortic s sarcolemma membrane vesicles; from tissue; host or cells: bovine aorta, sarcolemma membrane vesicles
# T2 sequence (Q28204 whole entry): as above
# T2 sequence (Q28067 whole entry partner): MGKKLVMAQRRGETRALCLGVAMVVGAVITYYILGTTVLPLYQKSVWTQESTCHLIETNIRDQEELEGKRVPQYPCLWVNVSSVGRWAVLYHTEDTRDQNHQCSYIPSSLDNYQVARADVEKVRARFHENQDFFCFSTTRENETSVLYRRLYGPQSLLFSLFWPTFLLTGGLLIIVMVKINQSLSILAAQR
# Experimental: The interaction of [^125 I]ChTX with bovine aortic s sarcolemma membrane vesicles was determined under conditions as described (Vazquez et al., 1989, J. Biol. Chem. 264, 20902-20909). Briefly, sarcolemma membrane vesicles were incubated in 12×75 polystyrene tubes with ca. 25 pM [^125 I]ChTX (2200 Ci/mmol), in the absence or presence of test compound, in a media consisting of 20 mM NaCl, 20 mM Tris-HCl pH 7.4, 0.1% bovine serum albumin, 0.1% digitonin. Nonspecific binding was determined in the presence of 10 nM ChTX. Incubations were carried out at room temperature until ligand binding equilibrium is achieved at ca. 90 min. At the end of the incubation period, samples were diluted with 4 mL ice-cold 100 mM NaCl, 20 mM Hepes-Tris pH 7.4 and filtered through GF/C glass fiber filters that have been presoaked in 0.5% polyethylenimine. Filters were rinsed twice with 4 mL ice-cold quench solution. Radioactivity associated with filters was determined in a gamma counter. Specific binding data in the presence of each compound (difference between total binding and nonspecific binding) was assessed relative to an untreated control.
smiles,measurement,setting,value
CC(C)=CCc1cccc2[nH]c3c(c12)CC1CCC2(O)C45OC4C4OC(C=C(C)C)OC(C)(C)C4OC5=CCC2(C)C31C (stereo not shown) [Compound C],block of maxi-K channels / channel activity,[1]; 10 nM,rapid and complete block
same,reversal of block on washout,"[1]; 10 nM, brief (~10 min) washout",not reversed
same,pIC50,[1],> 8.00
same,inhibition at 10 µM,[2]; read-out: inhibition of [^125 I]ChTX binding,29%
"CC(C)(O)C1CC(O)C2(C(=O)O)C(CCC3(C)C2CCC2Cc4c([nH]c5ccccc45)C23C)O1 (stereo not shown) [Compound D, hydroxypaspalinic acid]",block of channel activity,[1]; 1 μM,complete block was not observed
same,block of maxi-K channels relative to Compound C,[1],weaker blockers of maxi-K channels than Compound C
same,inhibition at 0.01 µM,"[1]; 10 nM, read-out: reduction in channel open probability",< 50%
same,pIC50,[1],~6.00
same,effect on [^125 I]ChTX binding,[2],did not have any effect on binding
"CC1(C)ON=C2C=C3C(CCC4(C)C3(O)CCC3Cc5c([nH]c6ccccc56)C34C)OC21 (stereo not shown) [Compound F, Paxizoline]",inhibition at 0.01 µM,"[1]; 10 nM, read-out: decrease in channel activity",~50%
same,pIC50,[1],~8.00
same,effect on amount of toxin bound to its receptor,[2]; 50 nM to 2 μM,small increase in the amount of toxin bound to its receptor
same,effect on toxin binding,[2]; concentrations above 5 μM,concentration-dependent inhibition of binding
"COC(=O)C12C(O)CC(C(C)(C)O)OC1CCC1(C)C2CCC2Cc3c([nH]c4ccccc34)C21C (stereo not shown) [Compound E, methyl hydroxypaspalinate]",effect on channel open probability,[1]; 1 μM,no significant effect on channel open probability
same,block of channel activity,[1]; 10 μM,incomplete block of channel activity
same,time over which block of channel activity slowly increased,[1]; 10 μM,5 to 10 min
same,block of maxi-K channels relative to Compound C,[1],weaker blockers of maxi-K channels than Compound C
same,pIC50,[1],< 5.00
same,effect on [^125 I]ChTX binding,[2],did not affect [^125 I]ChTX binding
